# Reference: patent US20200399238A1, “THERAPEUTIC AURONES” (MIDDLE TENNESSEE STATE UNIVERSITY, priority 2016, published 2020)
# Where two headings read alike, the source gives them in different places.
# What was measured:
# [1] = tested on: Trypanosoma brucei brucei 427 cells; assay: T. brucei culture and assay (PrestoBlue); format: cell-based; settings: for IC50: mean of 2(+) independent trials, read-out: IC50 T. brucei
# [2] = tested on: Trypanosoma cruzi Tulahuen trypomastigotes; assay: T. cruzi extracellular assay (CellTiter Glo); format: cell-based; settings: for IC50: Trypanosoma cruzi, TULAHUEN; for Selectivity L6/Tc: T. cruzi IC50 from extracellular assay (^b); for Selectivity L6/Tc (T. cruzi value from extracellular assay): L6 IC50 / T. cruzi IC50 (extracellular assay)
# [3] = tested on: Leishmania amazonensis promastigotes expressing beta-lactamase; assay: microbe, parasite or virus in culture; format: cell-based
# [4] = tested on: rat skeletal muscle cell line, L6; assay: cells; format: cell-based
# [5] = tested on: Trypanosoma cruzi Tulahuen cells expressing beta-galactosidase; assay: T. cruzi intracellular assay (beta-galactosidase, L6 host cells); settings: Trypanosoma cruzi, TULAHUEN
# Protocol: Trypanosoma cruzi Tulahuen cells expressing beta-galactosidase (Buckner et al., Antimicrob. Agents Chemother. 40 (1996) 2592-2597) were cultured using the L6 cell line as a host cell. Adherent L6 cultures were infected with freshly burst T. cruzi trypomastigotes. Approximately 4-6 days later freshly burst trypomastigotes were collected and used to maintain cultures For assays, trypomastigotes were centrifuged to a loose pellet and incubated for 3 hours to allow the trypomastigote forms to swim out of the pellet. Cells were adjusted for addition to intracellular or extracellular assays. […] For intracellular assays, cells were added to adherent L6 cells using an infection ratio of 1:1 and immediately treated with compounds. At 96 hours incubations, a solution containing chlorophenol-red-B-D-beta-galactopyranosidase (Sigma) and a lysis agent were added. After an additional 2 hour incubation, a spectrophotometer was used to quantify the resulting color change (or lack thereof) which was used to calculate inhibition.
# The percentage of cell inhibition was calculated using the formula: Percent Inhibition=1−((Treated Sample value−Medium only value)/(Untreated value−Medium only value))×100. Results are expressed as the mean of two or more independent trials.
# [6] = tested on: C. albicans (ATCC strain 90028); assay: Antifungal microdilution broth assay (PrestoBlue), C. albicans; format: cell-based, Candida albicans; settings: Candida albicans, ATCC90028, Table 4B; C. albicans; 100 μM; value ± spread; read-out: Percent Inhibition (at 100 μM)
# Protocol: Sigma-Aldrich) was used as the base medium for testing. […] solution of morpholinepropanesulfonic acid (MOPS; Sigma-Aldrich) was added to the RPMI to a final concentration of 0.165 M for buffering (RPMI-MOPS). This medium was adjusted to a pH of 7.0 with 10 M NaOH and filter sterilized. C. albicans (ATCC strain 90028), C. [NT] strain 66032), and C. tropicalis (ATCC strain 750) were cultured on potato dextrose agar (Sigma-Aldrich) plates, and incubated at 35° C. for 24 hours. For antifungal testing, overnight colonies were adjusted to 1.5×10^3 cells/mL, hereafter referred to as the test inoculum. PrestoBlue® (Life Technologies, Invitrogen, Carlsbad, Calif.), a resazurin-based cell viability reagent that, in metabolically active cells, is reduced from blue, non-fluorescent resazurin, to red, fluorescent resorufin, was used to assess inhibition of yeast growth by the aurones. […] Following addition of aurone, plates were then incubated for 24 hours at 35° C. PrestoBlue was added to a final concentration of 10% in each well and fluorescence read at 560 nm excitation and 590 nm emission, per manufacturer instructions, using a SpectraMax M2e spectrophotometer (Molecular Devices, LLC, Sunnyvale, Calif.). To optimize the PrestoBlue reduction time, RFUs were collected at 15 minute intervals for 4 hours using a reference antifungal. […] IC50 determination was calculated using GraphPad Prism version 7.01 for Windows (GraphPad Software, Inc., La Jolla, Calif.) from the RFUs at dilution points. Calculations were made with a nonlinear regression after transforming the molar concentrations of the aurones into the logarithmic form. Graphing was accomplished utilizing the same program following a four parameter curve fitting sigmoidal plot of the data. All aurones and controls were tested in triplicate and all testing was repeated in at least three independent experiments.
# [7] = Table 1, ^b extracellular T. cruzi assay, read-out: IC50 T. cruzi
# [8] = Table 2, extracellular assay, read-out: IC50 T. cruzi (footnote b: Extracellular T. cruzi assay)
# [9] = Leishmania amazonensis, read-out: IC50 L. amaz.
# [10] = Table 2, L6 IC50 / L. amazonensis IC50
# [11] = Rattus norvegicus, Table 1, read-out: IC50 Toxicity (L6)
# [12] = Table 2, L6 mammalian cells, read-out: IC50 Toxicity (L6)
# [13] = Leishmania amazonensis, read-out: IC50 L. amaz. (footnote c: value obtained from one trial)
# [14] = Table 2, L6 IC50 / T. brucei IC50
# [15] = read-out: IC50 T. cruzi, Table 1, intracellular assay, mean of 2(+) trials (^c one trial)
# [16] = read-out: IC50 T. cruzi, Table 2, intracellular assay, mean of 2(+) independent trials
SMILES,"IC50 ([1]; Trypanosoma brucei, Table 1) [µM]","IC50 [2, 7] [µM]","IC50 [2, 8] [µM]","IC50 [3, 9] [µM]",Selectivity L6/La ([3]; Table 1),"Selectivity L6/La [3, 10]","IC50 [4, 11] [µM]",melting point [°C],Selectivity L6/Tb ([1]; Table 1),further results
"Cc1ccc2c(c1)C(=O)/C(=C/c1ccc(O)cc1)O2 [Aurone 4005, (Z)-2-(4-hydroxybenzylidene)-5-methylbenzofuran-3(2H)-one]",> 50,> 50,> 50,3.58,>27.93,>27.93,> 100,228 to 231,,"IC50 ([1]; Table 2): > 50 µM; IC50 [4, 12]: > 100 µM"
"COc1cc(OC)c2c(c1)O/C(=C\c1ccc(C#N)cc1)C2=O [Aurone 7002, (Z)-4-((4,6-dimethoxy-3-oxobenzofuran-2(3H)-ylidene)methyl)benonitrile]",> 50,> 50,> 50,2.08,39.68,39.68,82.5,220 to 223,,"IC50 ([1]; Table 2): > 50 µM; IC50 [3, 13]: 2.08 µM"
"O=C1/C(=C/c2ccc(C(F)(F)F)cc2)Oc2ccc(Br)cc21 [Aurone 6001, (Z)-5-bromo-2-(4-(trifluoromethyl)benzylidene)benzofuran-3(2H)-one]",> 50,> 50,> 50,7.29,>13.72,>13.72,> 100,120 to 125,,"IC50 ([1]; Table 2): > 50 µM; IC50 [4, 12]: > 100 µM"
"O=C1/C(=C/c2cc(Br)cc(Br)c2O)Oc2ccccc21 [Aurone 3012, (Z)-2-(3,5-dibromo-2-hydroxybenzylidene)benzofuran-3(2H)-one]",> 50,40.1,40.1,1.21,>82.64,>82.64,> 100,,,"IC50 ([1]; Table 2): > 50 µM; Selectivity L6/Tc ([2]; Table 1): >2.49; Selectivity L6/Tc (T. cruzi value from extracellular assay) ([2]; Table 2): >2.49; IC50 ([5]; read-out: IC50 TC-I, Table 3A, weighted means of two or more independent trials): > 50 µM; IC50 ([4]; Rattus norvegicus, Table 3A, weighted means of two or more independent trials, read-out: IC50 L6): > 100 µM; IC50 [4, 12]: > 100 µM"
"Cc1ccc2c(c1)C(=O)/C(=C/c1ccc(C#N)cc1)O2 [Aurone 4001, (Z)-4-((5-methyl-3-oxobenzofuran-2(3H)-ylidene)methyl)benzonitrile]",2.66,31.7,31.7,38.4,1.98,1.98,76.2,148 to 152,28.66,"Selectivity L6/Tb [1, 14]: 28.66; Selectivity L6/Tc ([2]; Table 1): 2.40; Selectivity L6/Tc (T. cruzi value from extracellular assay) ([2]; Table 2): 2.40"
"N#Cc1ccc(/C=C2\Oc3ccc(Br)cc3C2=O)cc1 [Aurone 6003, (Z)-4-((5-bromo-3-oxobenzofuran-2(3H)-ylidene)methyl)benzonitrile]",17.1,> 50,> 50,1.22,>81.97,>81.97,> 100,,>5.85,"Selectivity L6/Tb [1, 14]: >5.85; IC50 [4, 12]: > 100 µM"
"Cc1cccc(/C=C2\Oc3ccccc3C2=O)c1 [Aurone 9064, (Z)-2-(3-methylbenzylidene)benzofuran-3(2H)-one]",32.6,18.4,18.4,4.4,,,79.9,74 to 75,,
"Cc1ccc2c(c1)C(=O)/C(=C/c1ccccc1C(F)(F)F)O2 [Aurone 4006, (Z)-5-methyl-2-(2-(trifluoromethyl)benzylidene)benzofuran-3(2H)-one]",30.2,15.8,15.8,9.7,7.52,7.52,72.9,121 to 124,2.41,"Selectivity L6/Tb [1, 14]: 2.41; Selectivity L6/Tc ([2]; Table 1): 4.62; Selectivity L6/Tc (T. cruzi value from extracellular assay) ([2]; Table 2): 4.62"
"N=C1/C(=C/c2ccccn2)Oc2ccc(F)cc21 [Aurone 9312, (Z)-5-fluoro-2-(pyridin-2-ylmethylene)benzofuran-3(2H)-imine]",> 50,> 50,> 50,< 1,>200,>200,> 200,,,"IC50 ([1]; Table 2): > 50 µM; IC50 ([3]; read-out: IC50 L. amaz., Table 2, mean of 2(+) independent trials): < 1 µM; IC50 [4, 12]: > 200 µM"
"Cc1ccc2c(c1)C(=O)/C(=C/c1ccc(Br)cc1)O2 [Aurone 4002, (Z)-2-(4-bromobenzylidene)-5-methylbenzofuran-3(2H)-one]",42.8,> 50,,19.7,>5.07,,> 100,171 to 175,>2.34,
"O=C1/C(=C/c2ccccc2O)Oc2ccccc21 [Aurone 9088, (Z)-2-(2-hydroxybenzylidene)benzofuran-3(2H)-one]",> 50,,,9.54,,,> 100,215 to 216,,"inhibition at 100 µM [6]: 1 ± 1.1%; IC50 [5, 15]: 18.4 µM; IC50 [5, 16]: 18.4 µM"
O=C1/C(=C/c2ccc(CO)o2)Sc2ccccc21 [TA2],11.4,> 50,> 50,< 1,,,> 200,,,
"O=C1/C(=C/c2ccc(Br)cc2)Oc2ccc(Br)cc21 [Aurone 6002, (Z)-5-bromo-2-(4-bromobenzylidene)benzofuran-3(2H)-one]",42,> 50,,11,>9.07,,> 100,126 to 130,>2.38,
CC(=O)N1/C(=C\c2ccc(CO)o2)C(=O)c2ccccc21 [AA4A],34.7,> 50,> 50,< 1,,,87,,,"IC50 [3, 13]: < 1 µM"
"N#Cc1ccc(/C=C2\Oc3cc(O)ccc3C2=O)cc1 [Aurone 9076, (Z)-4-((6-hydroxy-3-oxobenzofuran-2(3H)-ylidene)methyl)benzonitrile]",> 50,,,2.44,,,> 100,112 to 115,,"IC50 [5, 15]: 26.3 µM; IC50 [5, 16]: 26.3 µM"
"O=C1/C(=C/c2cccs2)Oc2c1ccc(O)c2O [Aurone 1001, (Z)-6,7-dihydroxy-2-(thiophen-2-ylmethylene)benzofuran-3(2H)-one]",25.3,,,22.9,,,50.6,168 to 170,,"IC50 [5, 15]: > 50 µM"
"O=C1/C(=C/c2cccc(C(F)(F)F)c2)Oc2ccccc21 [Aurone 9085, (Z)-2-(3-(trifluoromethyl)benzylidene)benzofuran-3(2H)-one]",> 50,,,4.43,,,73.4,128 to 133,,"IC50 [5, 15]: 11.1 µM; IC50 [5, 16]: 11.1 µM"
"COc1ccc(/C=C2\Oc3ccc(C)cc3C2=O)c(OC)c1OC [Aurone 4004, (Z)-5-methyl-2-(2,3,4-trimethoxybenzylidene)benzofuran-3(2H)-one]",19.7,> 50,> 50,4.04,10.86,10.86,43.9,74 to 78,2.23,"Selectivity L6/Tb [1, 14]: 2.23"
"COc1cc(Br)c(/C=C2\Oc3ccccc3C2=O)cc1OC [Aurone 9056, (Z)-2-(2-bromo-4,5-dimethoxybenzylidene)benzofuran-3(2H)-one]",21.9,,,1.83,,,> 100,144 to 147,,"IC50 [5, 15]: 36 µM; IC50 [5, 16]: 36 µM"
